Source: ChEMBL document CHEMBL5050844 (2019)

What was measured:
[1] = Induction of anti-CD3/CD28 antibodies-stimulated human T cell activation at 1 uM assessed fold increase in CD25 expression measured by ELISA assay; type: functional, T cell line
[2] = Induction of anti-CD3 antibodies-stimulated human T cell activation at 1 uM assessed fold increase in IL-2 secretion measured by ELISA assay; type: functional, T cell line; further: reference of the scale not given here
[3] = Induction of anti-CD3/CD28 antibodies-stimulated human T cell activation at 1 uM assessed fold increase in IL-2 secretion measured by ELISA assay; type: functional, T cell line
[4] = Induction of anti-CD3/CD28 antibodies-stimulated human T cell activation at 0.3 uM assessed fold increase in CD25 expression measured by ELISA assay; type: functional, T cell line
[5] = Induction of anti-CD3 antibodies-stimulated human T cell activation at 1 uM assessed fold increase in CD25 expression measured by ELISA assay; type: functional, T cell line; further: reference of the scale not given here
[6] = Induction of anti-CD3/CD28 antibodies-stimulated human T cell activation at 0.3 uM assessed fold increase in IL-2 secretion measured by ELISA assay; type: functional, T cell line
[7] = target: E3 ubiquitin-protein ligase CBL-B (Homo sapiens, UniProt Q13191); assay: Inhibition of N-terminal Avi-tagged human CBL-B (36 to 427 residues) incubated with 60 nM Src kinase for 1.5 hrs followed by incubation with fluorescently labeled UbcH5B-Ub for 1 hr and measured by TR-FRET assay; type: single protein
Sequence of E3 ubiquitin-protein ligase CBL-B (Q13191 whole entry, the tested form may be a part): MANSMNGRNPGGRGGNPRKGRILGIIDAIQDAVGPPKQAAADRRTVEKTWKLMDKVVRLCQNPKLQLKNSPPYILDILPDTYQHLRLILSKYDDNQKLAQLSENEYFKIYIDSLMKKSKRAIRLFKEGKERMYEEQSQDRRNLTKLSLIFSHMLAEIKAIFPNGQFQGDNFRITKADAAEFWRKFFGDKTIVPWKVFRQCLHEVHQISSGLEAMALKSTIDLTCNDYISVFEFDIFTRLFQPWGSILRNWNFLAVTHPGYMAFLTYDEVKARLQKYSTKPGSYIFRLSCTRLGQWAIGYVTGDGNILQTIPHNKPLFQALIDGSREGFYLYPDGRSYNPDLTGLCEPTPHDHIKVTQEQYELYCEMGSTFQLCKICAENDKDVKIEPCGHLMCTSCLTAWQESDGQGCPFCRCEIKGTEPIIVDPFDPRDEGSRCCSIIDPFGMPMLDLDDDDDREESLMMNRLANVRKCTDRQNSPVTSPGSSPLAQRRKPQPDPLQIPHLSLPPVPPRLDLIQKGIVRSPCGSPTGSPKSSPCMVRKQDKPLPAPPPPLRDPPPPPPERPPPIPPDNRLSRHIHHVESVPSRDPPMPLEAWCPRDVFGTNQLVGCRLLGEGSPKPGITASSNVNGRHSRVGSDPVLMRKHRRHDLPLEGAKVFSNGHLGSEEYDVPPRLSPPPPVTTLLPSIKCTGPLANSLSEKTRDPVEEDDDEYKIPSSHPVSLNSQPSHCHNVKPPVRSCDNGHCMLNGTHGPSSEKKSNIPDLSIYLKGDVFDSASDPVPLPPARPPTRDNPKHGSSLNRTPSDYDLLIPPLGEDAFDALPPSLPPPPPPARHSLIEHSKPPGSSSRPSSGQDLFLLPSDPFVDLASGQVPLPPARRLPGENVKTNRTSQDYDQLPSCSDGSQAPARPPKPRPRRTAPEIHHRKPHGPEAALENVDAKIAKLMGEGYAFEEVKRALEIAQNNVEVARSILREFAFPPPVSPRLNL

IC50 [7]	Structure (SMILES)	fold change (FC) [1]	fold change (FC) [2]	fold change (FC) [3]	fold change (FC) [4]	fold change (FC) [5]	fold change (FC) [6]	other results
< 100 nM	Cn1cnnc1CC1(c2cccc(N3Cc4c(cc(CN5CC[C@@H](F)[C@@H](F)C5)cc4C(F)(F)F)C3=O)c2)COC1 (relative stereo)							
< 100 nM	Cn1cnnc1CC1(c2cccc(N3Cc4c(cc(CN5CCc6cccnc6C5)cc4C(F)(F)F)C3=O)c2)COC1							
< 100 nM	C[C@H]1CCN(Cc2cc3c(c(C(F)(F)F)c2)CN(c2cccc(C4(Cc5nncn5C)COC4)c2)C3=O)C[C@H]1F							
> 10000 nM	C[C@@H](Sc1nncn1C)c1ccc(F)c(N2Cc3c(cccc3C(F)(F)F)C2=O)c1							
> 10000 nM	C[C@H](Sc1nncn1C)c1cccc(NC(=O)c2cccc(N(C)C)c2)c1							
< 100 nM	Cn1cnnc1CC1(c2cccc(N3Cc4c(cc(CN5CCc6cnccc6C5)cc4C(F)(F)F)C3=O)c2)COC1							
< 100 nM	Cn1cnnc1CC1(c2cccc(N3Cc4c(cc(CN5CCO[C@H](CO)C5)cc4C(F)(F)F)C3=O)c2)COC1							
< 100 nM	Cn1cnnc1CC1(c2cccc(N3Cc4c(cc(CN5Cc6ccc(Cl)cc6C5)cc4C(F)(F)F)C3=O)c2)COC1							
< 100 nM	Cn1cnnc1CC1(c2cccc(N3Cc4c(cc(CN5CCOC6(CC6)C5)cc4C(F)(F)F)C3=O)c2)COC1							
> 10000 nM	C[C@H](Sc1nncn1C)c1cccc(NC(=O)c2cc(C(=O)N3CCC[C@H]3C)ccn2)c1							
< 100 nM	CN(c1cc2c(c(C(F)(F)F)c1)CN(c1cccc([C@@](C)(F)C(F)(F)c3nncn3C)c1)C2=O)[C@H]1CNC[C@@H]1F							
< 100 nM	CC1=C(c2cc3c(c(C(F)(F)F)c2)CN(c2cccc(C4(Cc5nncn5C)COC4)c2)C3=O)CCO1							
< 100 nM	Cn1cnnc1CC1(c2cccc(N3Cc4c(cc(CN5CC[C@@H]6OCC[C@@H]6C5)cc4C(F)(F)F)C3=O)c2)COC1 (relative stereo)							
< 100 nM	Cn1cnnc1CC1(c2cccc(N3Cc4c(cc(CN5CC[C@H](F)[C@@H](F)C5)cc4C(F)(F)F)C3=O)c2)COC1							
< 100 nM	CC(c1cc2c(c(C(F)(F)F)c1)CN(c1cccc(C3(Cc4nncn4C)COC3)c1)C2=O)n1ccnc1 (stereo not given)							
< 100 nM	Cn1cnnc1CC1(c2cccc(N3Cc4c(cc(CN5CCOC(C6CCC6)C5)cc4C(F)(F)F)C3=O)c2)COC1 (stereo not given)							
< 100 nM	Cn1cnnc1CC1(c2cccc(N3Cc4c(cc(CN5CCc6ncccc6C5)cc4C(F)(F)F)C3=O)c2)COC1							
> 10000 nM	C[C@@H](Cc1n[nH]cc1CO)c1cccc(N2Cc3c(cccc3C(F)(F)F)C2=O)c1							
< 100 nM	Cn1cnnc1CC1(c2cccc(N3Cc4c(cc(CN5CCOC(CCO)C5)cc4C(F)(F)F)C3=O)c2)COC1 (stereo not given)							
< 100 nM	Cc1cc(C(=O)Nc2cccc(C3(Cc4nncn4C(F)F)COC3)c2)nc(C2CC2)n1							
< 100 nM	Cn1cnnc1CC1(c2cccc(N3Cc4c(cc(CN5CCC(F)(F)C(O)C5)cc4C(F)(F)F)C3=O)c2)COC1 (stereo not given)							
< 100 nM	Cn1cnnc1CC1(c2cccc(N3Cc4c(cc(CN5CCO[C@H](C(F)(F)F)C5)cc4C(F)(F)F)C3=O)c2)COC1							
< 100 nM	Cn1cnnc1CC1(c2cccc(N3Cc4c(cc(CN5CCOC(C(F)F)C5)cc4C(F)(F)F)C3=O)c2)COC1 (stereo not given)							
< 100 nM	CN1CC[C@H](O)C(Cc2cc3c(c(C(F)(F)F)c2)CN(c2cccc(C4(Cc5nncn5C)COC4)c2)C3=O)C1 (single isomer, unassigned)							

The remaining lines, values behind:

Structure (SMILES)	IC50 [7]	fold change (FC) [1]	fold change (FC) [2]	fold change (FC) [3]	fold change (FC) [4]	fold change (FC) [5]	fold change (FC) [6]	other results
C[C@H](Cc1nncn1C)c1cc(C2CCOCC2)nc(N2Cc3c(cccc3C(F)(F)F)C2=O)c1		1.01	<=0.05	1.01	1.01	<=0.6	1.01	
Cc1cc(C(=O)Nc2cccc(C3(Cc4nncn4C)COC3)c2)n2nc(C(F)(F)F)cc2n1		1.01	<=0.05	1.01	1.01	0.601	1.01	
C[C@H](Cc1nncn1C)c1cc(-c2cn[nH]c2)nc(N2Cc3c(cccc3C(F)(F)F)C2=O)c1		<=1	0.051	<=1	<=1	<=0.6	<=1	
CN(c1cc2c(c(C(F)(F)F)c1)CN(c1cccc([C@@](C)(F)C(F)(F)c3nncn3C)c1)C2=O)[C@@H]1CNC[C@@H]1F		1.01	0.101	2.51	1.01	0.601	1.01	
Cc1cnn2c(C(=O)Nc3cccc(C4(Cc5nncn5C)COC4)c3)cc(C(F)(F)F)nc12		1.01	<=0.05	1.01	1.01	0.601	<=1	
Cn1cnnc1-c1cnn(C)c1-c1cccc(N2Cc3c(cccc3C(F)(F)F)C2=O)c1		1.01	0.051	1.01	1.01	0.601	1.01	
Cn1cnnc1CC1(c2cccc(N3Cc4c(cc(C5=CN6CCC5CC6)cc4C(F)(F)F)C3=O)c2)COC1		1.01	<=0.05	2.51	1.01	0.601	1.01	
Cn1cnnc1CC1(c2cccc(NC(=O)c3nc(C(F)(F)F)cs3)c2)COC1		1.01	<=0.05	2.51	1.01	0.601	1.01	
C[C@H](Cc1nncn1C)c1cc(-c2cncs2)nc(N2Cc3c(cccc3C(F)(F)F)C2=O)c1		1.01	0.051	1.01	1.01	<=0.6	1.01	
Cc1cc(C(=O)Nc2cccc(-c3c(-c4nncn4C)cnn3C)c2)nc(C2CC2)n1		1.01	0.101	1.01	1.01	0.601	1.01	
Cn1cnnc1CC1(c2cccc(NC(=O)c3ccnc4ccnn34)c2)COC1		1.01	<=0.05	2.51	1.01	0.601	1.01	
Cn1cnnc1CC1(c2cccc(N3Cc4c(ccc(F)c4C4CC4)C3=O)c2)COC1		1.01	0.051	1.01	1.01	0.601	1.01	
CN(c1cc2c(c(C(F)(F)F)c1)CN(c1cccc([C@@](C)(F)C(F)(F)c3nncn3C)c1)C2=O)[C@H]1CNC[C@H]1F		1.31	0.151	2.51	1.01	0.801	1.01	
Cc1cc(C(=O)Nc2cccc(C3(Cc4nncn4C)COC3)c2)n2nccc2n1		1.01	<=0.05	1.01	1.01	0.601	1.01	
Cn1cnnc1CC1(c2cccc(NC(=O)c3csc(C4CC4)n3)c2)COC1		1.01	0.051	1.01	1.01	0.601	1.01	
C[C@H](Cc1nncn1C)c1cc(N2Cc3c(cccc3C(F)(F)F)C2=O)nc(C2(C)CC2)c1		1.01	0.051	1.01	1.01	<=0.6	1.01	
Cn1cnnc1CC1(c2cccc(N3Cc4c(cc(C(F)(F)C(=O)O)cc4C(F)(F)F)C3=O)c2)COC1		1.01	<=0.05	1.01	1.01	0.601	1.01	
Cn1cnnc1CC1(c2cccc(NC(=O)c3nc(C4CC4)cs3)c2)COC1		1.01	<=0.05	1.01	1.01	<=0.6	<=1	
Cc1cc(C(=O)Nc2cccc([C@]3(Cc4nncn4C)CCOC3)c2)nc(C2CC2)n1 (single isomer, unassigned)		1.01	0.051	2.51	1.01	0.601	1.01	
Cn1cnnc1[C@@H](F)C1(c2cccc(N3Cc4c(cc(CN5C6CCCC5CC6)cc4C(F)(F)F)C3=O)c2)COC1 (stereo in doubt; 675a)								fold change (FC) ([1]; 1 µM): 1.31; fold change (FC) ([2]; 1 µM): 0.101; fold change (FC) ([4]; 0.3 µM): 1.01; fold change (FC) ([5]; 1 µM): >=1.001
Cn1cnnc1OC1(c2cccc(N3Cc4c(cc(CN5CCC(F)CC5)cc4C(F)(F)F)C3=O)c2)COC1		1.31	<=0.05	2.51	1.01	0.601	1.01	
Cn1cnnc1[C@H](F)C1(c2cccc(N3Cc4c(cc(CN5C6CCCC5CC6)cc4C(F)(F)F)C3=O)c2)COC1 (stereo in doubt; 675b)								fold change (FC) ([1]; 1 µM): 1.31; fold change (FC) ([4]; 0.3 µM): 1.31
